Tested on: Kv1.3 potassium channel
Test: Whole-cell patch-clamp assay for inhibitory activity against Kv1.3 (peak current)
Assay type: cell-based
Details: HEK293 cells stably expressing Kv1.3, room temperature
Experimental: 1. Assay for inhibitory activity of compounds against Kv1.X
HEK293 cells stably expressing Kv1.X (Kv1.1, Kv1.2, Kv1.3, Kv1.4, Kv1.5) potassium channels were cultured in DMEM medium containing 10% fetal bovine serum and 800 µg/mL G418 (geneticin) at a culture temperature of 37 °C and a carbon dioxide concentration of 5%.
1.2. Fluids used for recording
The extracellular fluid contained 40 mM NaCl, 3.5 mM KCl, 1 mM MgCl2•6H2O, 2 mM CaCl2•2H2O, 10 mM D-glucose, 10 mM HEPES, 1.25 mM NaH2PO4•2H2O, and the pH was adjusted to 7.4 with NaOH. The intracellular fluid contained 20 mM KCl, 115 mM K-Aspartic, 1 mM MgCl2•6H2O, 5 mM EGTA, 10 mM HEPES, 2 mM Na2-ATP, and the pH was adjusted to 7.2 with KOH.
The voltage stimulation protocol for recording whole-cell Kv1.X potassium currents via patch-clamp was as follows: After formation of a whole-cell seal, the cell membrane voltage was clamped at -80 mV, and then stepped to +40 mV for 500 ms. Data were acquired repeatedly every 30 s and the effect of the drug on Kv1.X currents was observed. […] Then, a slow capacitance compensation was given, and the membrane capacitance and series resistance were recorded. […]
Once the whole-cell recorded Kv1.X current stabilized, drug administration was started. […] For each cell, the current detected in the compound-free extracellular liquid was used as its own control group. […]

SMILES	IC50 [nM]
Oc1ccc(Cl)c(Cl)c1[C@@H]1Cc2nnc([C@H]3C[C@@H](O)C3)n2C1 [Example 70, 3,4-Dichloro-2-((S)-3-((1s,3R)-3-hydroxycyclobutyl)-6,7-dihydro-5H-pyrrolo[2,1-c][1,2,4]triazol-6-yl)phenol]	21.6
Oc1ccc(Cl)c(Cl)c1[C@@H]1Cc2nnc([C@H]3C[C@H](O)C3)n2C1 [Example 71, 3,4-dichloro-2-((S)-3-((1r,3S)-3-hydroxycyclobutyl)-6,7-dihydro-5H-pyrrolo[2,1-c][1,2,4]triazol-6-yl)phenol]	10.3
